Measured values: publication PMC5741980 (Journal of Experimental Pharmacology, 2017)
Peptide text beside a SMILES is read from it.

Assays:
human V2 receptors [1] = target: T1, human V2 receptors (Homo sapiens, UniProt P30518); test: Functional assay, cAMP production; assay type: cell-based; conditions: compared with maximal effect of AVP
rat V1 receptors [2] = conditions: intracellular calcium mobilization; cited from earlier work
human V1 receptors [3] = target: T2, human V1 receptors (Homo sapiens, UniProt P37288); test: Competitive binding assay, [3H]AVP, CHO-S cell membrane homogenates; conditions: for affinity (selectivity) for V1 higher than for V2: this study
T2 sequence (P37288 whole entry): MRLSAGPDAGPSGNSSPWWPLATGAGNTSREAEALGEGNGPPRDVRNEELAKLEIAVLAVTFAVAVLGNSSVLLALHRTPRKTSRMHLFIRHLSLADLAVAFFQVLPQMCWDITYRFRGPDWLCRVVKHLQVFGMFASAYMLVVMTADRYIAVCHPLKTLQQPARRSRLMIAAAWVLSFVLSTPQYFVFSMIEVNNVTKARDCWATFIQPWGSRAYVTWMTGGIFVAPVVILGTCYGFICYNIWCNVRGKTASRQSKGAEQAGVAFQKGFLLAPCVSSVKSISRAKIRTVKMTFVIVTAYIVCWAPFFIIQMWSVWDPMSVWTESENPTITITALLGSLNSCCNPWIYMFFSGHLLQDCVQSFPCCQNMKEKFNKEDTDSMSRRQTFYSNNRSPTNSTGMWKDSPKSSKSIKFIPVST

human V1 receptors [4] = target: T2, human V1 receptors; conditions: cited from earlier work; for Ki: read-out: mean binding affinity (Ki) for human V1 receptors, human vascular smooth muscle cells
human V1 receptors [5] = target: T2, human V1 receptors; test: Functional assay, intracellular calcium mobilization; assay type: cell-based; conditions: compared with maximal effect of AVP
human V1 receptors [6] = target: T2, human V1 receptors; conditions: intracellular calcium mobilization; cited from earlier work
human V2 receptors [7] = target: T1, human V2 receptors; test: Competitive binding assay, [3H]AVP, CHO-K1 cell membrane homogenates
V1 = conditions: cited from earlier work; for EC50: read-out: EC50 for V1 activation, recombinant system, functional assay
V1 activation = conditions: rat model of portal hypertension, cited from earlier work
rat V1 receptors [8] = conditions: cited from earlier work

T1 sequence (P30518 whole entry): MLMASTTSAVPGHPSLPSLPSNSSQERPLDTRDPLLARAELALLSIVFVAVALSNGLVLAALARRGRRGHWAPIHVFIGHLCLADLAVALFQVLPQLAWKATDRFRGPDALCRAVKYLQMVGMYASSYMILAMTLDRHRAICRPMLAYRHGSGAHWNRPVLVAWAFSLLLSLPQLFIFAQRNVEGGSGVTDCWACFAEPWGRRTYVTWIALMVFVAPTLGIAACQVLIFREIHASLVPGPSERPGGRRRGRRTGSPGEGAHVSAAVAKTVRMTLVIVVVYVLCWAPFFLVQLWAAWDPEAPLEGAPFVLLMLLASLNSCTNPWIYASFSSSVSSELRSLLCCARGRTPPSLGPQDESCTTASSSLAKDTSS

| Compound | agonist type at V2 receptors (human V2 receptors [1]) | mean maximal cell activation at rat V1 receptors (rat V1 receptors [2]) | affinity (selectivity) for V1 higher than for V2 (human V1 receptors [3]) | binding affinity less than that of AVP, V1 receptors (human V1 receptors [3]; versus AVP) | Ki (human V1 receptors [4]) | agonist type at V1 receptors (human V1 receptors [5]) | mean maximal cell activation at human V1 receptors (human V1 receptors [6]) | binding affinity less than that of AVP, V2 receptors (human V2 receptors [7]; versus AVP) | EC50 (V1) | mean potency for V1 activation in vasopressor tests (V1 activation) | mean potency less than that of vasopressin (V1 activation; vasopressor tests) | difference in binding versus LVP at rat V1 receptors (rat V1 receptors [8]) | binding affinity less than that of LVP, V1 receptors (human V1 receptors [3]; versus LVP) | selectivity for V1 receptors higher than for V2 receptors (human V1 receptors [4]; Colson et al) | binding affinity less than that of LVP, human V1 receptors (human V1 receptors [4]; versus LVP) | binding affinity less than that of LVP, V2 receptors (human V2 receptors [7]; versus LVP) | EC50 higher than that for LVP (V1; versus LVP) |
| --- | --- | --- | --- | --- | --- | --- | --- | --- | --- | --- | --- | --- | --- | --- | --- | --- | --- |
| NCCCC[C@H](NC(=O)[C@@H]1CCCN1C(=O)[C@@H]1CSSC[C@H](N)C(=O)N[C@@H](Cc2ccc(O)cc2)C(=O)N[C@@H](Cc2ccccc2)C(=O)N[C@@H](CCC(N)=O)C(=O)N[C@@H](CC(N)=O)C(=O)N1)C(=O)NCC(N)=O [LVP, [Lys8]-vasopressin] | full agonist | 100% | approximately sixfold | about twofold | 10 nM | full agonist | 100% | about 12 fold | 0.93 nM |  |  |  |  |  |  |  |  |
| NCCCC[C@H](NC(=O)[C@@H]1CCCN1C(=O)[C@@H]1CSSC[C@H](NC(=O)CNC(=O)CNC(=O)CN)C(=O)N[C@@H](Cc2ccc(O)cc2)C(=O)N[C@@H](Cc2ccccc2)C(=O)N[C@@H](CCC(N)=O)C(=O)N[C@@H](CC(N)=O)C(=O)N1)C(=O)NCC(N)=O [Terlipressin, N^α-tryglycl-8-lysine-vasopressin] (HELM PEPTIDE1{G.G.G.C.Y.F.Q.N.C.P.K.G.[am]}$PEPTIDE1,PEPTIDE1,4:R3-9:R3$$$V2.0; bridges inferred) | full agonist | 66% | approximately sixfold |  | 1230 nM | partial agonist | 48% |  | 148 nM | 9 IU×µmol^−1 | about 66 fold | ~700 fold | about 600 fold | 1.9 fold | about 120 fold | about 700 fold | about 150 fold |
| vasopressin: vasopressin comparator in Bernadich et al rat vasopressor tests; probably AVP |  |  |  |  |  |  |  |  |  | 614 IU×µmol^−1 |  |  |  |  |  |  |  |
